Experimental data: US20120157453A1, “RAF INHIBITOR COMPOUNDS AND METHODS OF USE THEREOF” (GENENTECH, INC., priority 2009, published 2012)
pIC50: −log10 of the molar value. Where two headings read alike, the source gives them in different places.

Key:
V600E full-length B-Raf = molecular target: T1, V600E full-length B-Raf (Homo sapiens, UniProt P15056, V600E); test: B-Raf IC50 assay (incorporation of 33P phosphate into FSBA-modified MEK); format: biochemical
T1 construct: 1 μM FSBA-MEK and 20 nM V600E full-length B-Raf; made in house; host or cells: Sf9 insect cells (baculovirus)
T1 sequence (P15056 whole entry V600E): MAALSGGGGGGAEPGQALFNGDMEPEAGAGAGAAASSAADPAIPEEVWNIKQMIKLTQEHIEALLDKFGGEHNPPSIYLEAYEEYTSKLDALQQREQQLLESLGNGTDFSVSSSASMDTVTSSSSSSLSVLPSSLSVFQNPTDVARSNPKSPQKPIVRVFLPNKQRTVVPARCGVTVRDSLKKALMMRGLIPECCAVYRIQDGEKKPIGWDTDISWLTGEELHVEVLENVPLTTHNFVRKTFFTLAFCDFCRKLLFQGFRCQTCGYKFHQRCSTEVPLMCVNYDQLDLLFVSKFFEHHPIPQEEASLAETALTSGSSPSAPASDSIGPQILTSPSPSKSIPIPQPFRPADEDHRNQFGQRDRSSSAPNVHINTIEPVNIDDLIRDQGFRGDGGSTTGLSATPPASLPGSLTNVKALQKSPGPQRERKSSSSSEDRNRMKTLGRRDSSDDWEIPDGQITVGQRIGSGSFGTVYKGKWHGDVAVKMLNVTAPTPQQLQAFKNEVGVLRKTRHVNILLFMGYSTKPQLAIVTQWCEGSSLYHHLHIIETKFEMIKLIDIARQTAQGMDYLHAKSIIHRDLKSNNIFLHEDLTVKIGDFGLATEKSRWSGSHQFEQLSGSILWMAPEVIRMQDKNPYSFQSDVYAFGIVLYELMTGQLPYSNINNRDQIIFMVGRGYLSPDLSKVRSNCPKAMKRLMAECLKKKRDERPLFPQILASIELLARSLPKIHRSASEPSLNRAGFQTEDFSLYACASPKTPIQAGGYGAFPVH
Text: Determining the activity of Raf in the sample is possible by a number of direct and indirect detection methods (US 2004/0082014). Activity of human recombinant B-Raf protein may be assessed in vitro by assay of the incorporation of radio labeled phosphate to recombinant MAP kinase (MEK), a known physiologic substrate of B-Raf, according to US 2004/0127496 and WO 03/022840. The activity/inhibition of V600E full-length B-Raf was estimated by measuring the incorporation of radio labeled phosphate from [γ-^33P]ATP into FSBA-modified wild-type MEK (see Example A).
Activity of human recombinant B-Raf protein may be assessed in vitro by assay of the incorporation of radio labeled phosphate to recombinant MAP kinase (MEK), a known physiologic substrate of B-Raf, according to US 2004/0127496 and WO 03/022840. Catalytically active human recombinant B-Raf protein is obtained by purification from sf9 insect cells infected with a human B-Raf recombinant baculovirus expression vector.
The activity/inhibition of V600E full-length B-Raf was estimated by measuring the incorporation of radio labeled phosphate from [γ-^33P]ATP into FSBA-modified wild-type MEK. The 30-μL assay mixtures contained 25 mM Na Pipes, pH 7.2, 100 mM KCl, 10 mM MgCl2, 5 mM β-glycerophosphate, 100 μM Na Vanadate, 4 μM ATP, 500 nCi [γ-^33P]ATP, 1 μM FSBA-MEK and 20 nM V600E full-length B-Raf. Incubations were carried out at 22° C. in a Costar 3365 plate (Corning). Prior to the assay, the B-Raf and FSBA-MEK were preincubated together in assay buffer at 1.5× (20 μL of 30 nM and 1.5 μM, respectively) for 15 minutes, and the assay was initiated by the addition of 10 μL of 10 μM ATP. Following the 60-minute incubation, the assay mixtures were quenched by the addition of 100 μL of 25% TCA, the plate was mixed on a rotary shaker for 1 minute, and the product was captured on a Perkin-Elmer GF/B filter plate using a Tomtec Mach III Harvester. After sealing the bottom of the plate, 35 μL of Bio-Safe II (Research Products International) scintillation cocktail were added to each well and the plate was top-sealed and counted in a Topcount NXT (Packard).

[1] = tested on: basal ERK1/2 phosphorylation in Malme-3M cells; test: Cellular ERK 1/2 phosphorylation assay; format: cell-based; details: Homo sapiens, 1 h, pERK normalized to total ERK
Description: Inhibition of basal ERK1/2 phosphorylation was determined by the following in vitro […], which comprises incubating cells with a compound of Formula II for 1 hour and quantifying the fluorescent pERK signal on fixed cells and normalizing to total ERK signal.
Materials and Methods: Malme-3M cells were obtained from ATCC and grown in RPMI-1640 supplemented with 10% fetal bovine serum. Cells were plated in 96-well plates at 24,000 cells/well and allowed to attach for 16-20 hours at 37° C., 5% CO2. The media was removed, and DMSO-diluted compounds were added in RPMI-1640 at a final concentration of 1% DMSO. The cells were incubated with the compounds for 1 hour at 37° C., 5% CO2. The cells were washed with PBS and fixed in 3.7% formaldehyde in PBS for 15 minutes. This was followed by washing in PBS/0.05% Tween20 and permeabilizing in −20° C. 100% MeOH for 15 minutes. Cells were washed in PBS/0.05% Tween20 then blocked in Odyssey blocking buffer (LI-COR Biosciences) for 1 hour. Antibodies to phosphorylated ERK (1:400, Cell Signaling #9106, monoclonal) and total ERK (1:400, Santa Cruz Biotechnology #sc-94, polyclonal) were added to the cells and incubated 16-20 hours at 4° C. After washing with PBS/0.05% Tween20, the cells were incubated with fluorescently-labeled secondary antibodies (1:1000 goat anti-rabbit IgG-IRDye800, Rockland and 1:500 goat anti-mouse IgG-Alexa Fluor 680, Molecular Probes) for an additional hour. Cells were then washed and analyzed for fluorescence at both wavelengths using the Odyssey Infrared Imaging System (LI-COR Biosciences). Phosphorylated ERK signal was normalized to total ERK signal.

[2] = B-Raf V600E, bound less than 1 μM, read-out: IC50
[3] = Example A assay, 4 μM ATP, 20 nM enzyme, 60-minute incubation, read-out: BRAF V600E IC50

Row | Compound | pIC50 (V600E full-length B-Raf; [2]) | pIC50 (V600E full-length B-Raf; [3]) | pIC50 ([1]; bound less than 1 μM) | pIC50 [1] | pIC50 ([1]; bound less than 500 nM)
1 | CCCS(=O)(=O)Nc1ccc(F)c(NC(=O)Nc2ncnc3sc(C)c(C)c23)c1F [Example 20, Propane-1-sulfonic acid {3-[3-(5,6-dimethyl-thieno[2,3-d]pyrimidin-4-yl)-ureido]-2,4-difluoro-phenyl}-amide] | > 6.00 | 7.55 | > 6.00 |  | 
2 | CCCS(=O)(=O)Nc1ccc(Cl)c(NC(=O)Nc2ncnc3oc(C)c(C)c23)c1F [Example 21, Propane-1-sulfonic acid {4-chloro-3-[3-(5,6-dimethyl-furo[2,3-d]pyrimidin-4-yl)-ureido]-2-fluoro-phenyl}-amide] | > 6.00 | 7.04 | > 6.00 | 6.28 | 
3 | CCCS(=O)(=O)Nc1ccc(Cl)c(NC(=O)Nc2ncnc3sccc23)c1F [Example 22, Propane-1-sulfonic acid [4-chloro-2-fluoro-3-(3-thieno[2,3-d]pyrimidin-4-yl-ureido)-phenyl]-amide] | > 6.00 | 7.73 | > 6.00 |  | > 6.30
